Literature values as cited in patent US10280177B2 (ALFASIGMA S.P.A., priority 2006, dated 2019).

Conditions: in vivo

reduction of bioavailability compared to the form δ: twenty
Compound: CO[C@H]1/C=C/O[C@@]2(C)Oc3c(C)c(O)c4c(O)c(c5c(nc6cc(C)ccn65)c4c3C2=O)NC(=O)/C(C)=C\C=C\[C@H](C)[C@H](O)[C@@H](C)[C@@H](O)[C@@H](C)[C@H](OC(C)=O)[C@@H]1C [polymorph ?, rifaximin]
